In brackets after ≈: the same amount, converted by molar mass.
Columns and labels:
[1] = acute toxicity in mice (single intraperitoneal administration); conditions: mouse, in vivo, ip; mice, single i.p.; read-out: LD50 (median lethal dose on single administration)
Experimental: (§1) In Table 8 median lethal doses (LD50) of typical compounds of this invention are shown, measured in mice upon single intraperitoneal administration, as well as maximum tolerated doses in terms of total dose when a fixed amount per unit body weight was administered intraperitoneally to mice once a day for 6 consecutive days.
*Median lethal dose on single administration.

[2] = cumulative toxicity in mice (maximum tolerated dose, once a day for 6 consecutive days); conditions: mouse, in vivo, ip, i.p. once a day for 6 consecutive days, total dose, read-out: Maximum Tolerated Dose (total dose not causing death)
Experimental: as §1
**Maximum value of the total dose not causing death when a fixed amount
per unit body weight is administered to mice once a day for 6 consecutive

[3] = test system: mouse leukemia L-1210 cells; test: growth inhibitory activity to cancer cells in vitro (L-1210, 48 hours); assay type: cell-based; conditions: for inhibition at 1.25 µg/mL: L1210, 1.25 mcg/ml; for inhibition at 2.5 µg/mL: L1210, 2.5 mcg/ml; for inhibition at 5 µg/mL: L1210, 5 mcg/ml; for inhibition at 10 µg/mL: L1210, 10 mcg/ml; for inhibition at 20 µg/mL: L1210, 20 mcg/ml; for inhibition at 40 µg/mL: L1210, 40 mcg/ml; for inhibition at 80 µg/mL: L1210, 80 mcg/ml; for IC50: L1210, L-1210 cells, read-out: 50% inhibitory concentration
Experimental: DBA/2 mice were implanted with 10^5 mouse leukemia L-1210 cells. The ascites collected asceptically from the mice after 4 days of feeding was washed three times with physiological saline to obtain L-1210 cells, which was then suspended in RPMI 1640 culture medium [G. E. Moore, Journal of the American Medical Association, Vol. 199, 519 (1967); H. J. Morton, In Vitro, Vol. 6, 89 (1970)] to which 10% fetal calf serum and 5 μM 2-mercaptoethanol had been added, and the resulting suspension was diluted to 5×10^4 L-1210 cells per 0.9 ml. A microplate carrying 0.9 ml of the cell suspension and 0.1 ml of the culture medium containing the sample being tested was kept in a carbon dioxide incubator at 37° C. After 48 hours of cultivation, the number of cells was measured by means of a Coulter Counter (Coulter Electronics, Inc., U.S.A.) to obtain the growth inhibition (%)=(1--T/C )×100=[1-(number of grown cells in medium containing sample/(number of grown cells in control medium)]×100. The 50% growth inhibitory concentration was calculated from the values of growth inhibition at varied sample concentrations. The results of tests on typical compounds of this invention for the growth inhibition of L-1210 cells were as shown in Table 6.

mouse leukemia L-1210 = test: therapeutic effect on implanted cancer in mice (L-1210, survival over 30 days); assay type: in vivo, mouse (BDF1); conditions: L1210, ip, 720 h, 6 days; for responders at 0.2 mg/kg / response vs control in vivo at 0.2 mg/kg: 0.20 mg/kg/day i.p.; for responders at 0.2 mg/kg / responders at 0.39 mg/kg / responders at 0.78 mg/kg / responders at 1.56 mg/kg / responders at 3.13 mg/kg / responders at 6.25 mg/kg / responders at 12.5 mg/kg / responders at 25 mg/kg / responders at 50 mg/kg: read-out: Number of mice survived for 30 days (converted); for responders at 0.39 mg/kg / response vs control in vivo at 0.39 mg/kg: 0.39 mg/kg/day i.p.; for responders at 0.78 mg/kg / response vs control in vivo at 0.78 mg/kg: 0.78 mg/kg/day i.p.; for responders at 1.56 mg/kg / response vs control in vivo at 1.56 mg/kg: 1.56 mg/kg/day i.p.; for responders at 3.13 mg/kg / response vs control in vivo at 3.13 mg/kg: 3.13 mg/kg/day i.p.; for responders at 6.25 mg/kg / response vs control in vivo at 6.25 mg/kg: 6.25 mg/kg/day i.p.; for responders at 12.5 mg/kg / response vs control in vivo at 12.5 mg/kg: 12.5 mg/kg/day i.p.; for responders at 25 mg/kg / response vs control in vivo at 25 mg/kg: 25 mg/kg/day i.p.; for responders at 50 mg/kg / response vs control in vivo at 50 mg/kg: 50 mg/kg/day i.p.
Text: BDF1 strain male mice (5 weeks old) were each inoculated intraperitoneally with 10^5 mouse leukemia L-1210 cells and treated once a day by intraperitoneal injection with a test compound dissolved in physiological saline for 6 consecutive days beginning from the day of inoculation. The mice were then observed for 30 days to determine the rate of prolongation of survival period=100×T/C=100×(average survival days of treated group)/(average survival days of control group).

[4] = read-out: Growth inhibition (%), (1-T/C) × 100
[5] = read-out: Prolongation of survival period (%), T/C × 100

| Structure (SMILES) | LD50 [1] | MTD [2] | inhibition at 2.5 µg/mL [3, 4] | inhibition at 5 µg/mL [3, 4] | inhibition at 10 µg/mL [3, 4] | inhibition at 20 µg/mL [3, 4] | inhibition at 40 µg/mL [3, 4] | inhibition at 80 µg/mL [3, 4] | IC50 [3] | responders at 0.78 mg/kg (mouse leukemia L-1210) | responders at 1.56 mg/kg (mouse leukemia L-1210) | response vs control in vivo at 1.56 mg/kg (mouse leukemia L-1210; [5]) | responders at 3.13 mg/kg (mouse leukemia L-1210) | response vs control in vivo at 3.13 mg/kg (mouse leukemia L-1210; [5]) | responders at 6.25 mg/kg (mouse leukemia L-1210) | response vs control in vivo at 6.25 mg/kg (mouse leukemia L-1210; [5]) | responders at 12.5 mg/kg (mouse leukemia L-1210) | response vs control in vivo at 12.5 mg/kg (mouse leukemia L-1210; [5]) | responders at 25 mg/kg (mouse leukemia L-1210) | response vs control in vivo at 25 mg/kg (mouse leukemia L-1210; [5]) | other results |
| --- | --- | --- | --- | --- | --- | --- | --- | --- | --- | --- | --- | --- | --- | --- | --- | --- | --- | --- | --- | --- | --- |
| N=C(N)NCCCCCCC(O)CC(=O)NC(O)C(=O)NCCCCNCCCN (stereo not shown) [Compound 21, N-[4-(3-aminopropyl)aminobutyl]-2-(9-guanidino-3-hydroxynonanamido)-2-hydroxyethanamide] | 25 to 50 mg/kg | > 150 mg/kg | 21.5% | 29.7% | 37.5% | 51.6% | 84% | 94.5% | 18 µg/mL (≈ 41.7 µM) | 0% | 0% | 114% | 0% | 129% | 0% | 164% | 0% | 200% | 0% | 229% | inhibition at 1.25 µg/mL [3, 4]: 14.6%; responders at 0.2 mg/kg (mouse leukemia L-1210): 0%; response vs control in vivo at 0.2 mg/kg (mouse leukemia L-1210; [5]): 100%; responders at 0.39 mg/kg (mouse leukemia L-1210): 0%; response vs control in vivo at 0.39 mg/kg (mouse leukemia L-1210; [5]): 100%; response vs control in vivo at 0.78 mg/kg (mouse leukemia L-1210; [5]): 100%; responders at 50 mg/kg (mouse leukemia L-1210): 0%; response vs control in vivo at 50 mg/kg (mouse leukemia L-1210; [5]): 0% |
| COC(NC(=O)CCCCCCCNC(=N)N)C(=O)NCCCCNCCCN (stereo not shown) [Compound 10, N-[4-(3-aminopropyl)aminobutyl]-2-(8-guanidinooctanamido)-2-methoxyethanamide] | 12.5 to 25 mg/kg | > 75 mg/kg |  | 19.9% | 28.5% | 36.5% | 52.4% | 62.4% | 39 µg/mL (≈ 93.8 µM) |  | 0% | 100% | 0% | 100% | 0% | 107% | 0% | 129% | 0% | 0% | inhibition at 160 µg/mL ([3]; L1210, 160 mcg/ml, read-out: Growth inhibition (%), (1-T/C) × 100): 79.5%; responders at 50 mg/kg (mouse leukemia L-1210): 0%; response vs control in vivo at 50 mg/kg (mouse leukemia L-1210; [5]): 0% |
| N=C(N)NCCCCC=CC(=O)NC(O)C(=O)NCCCCNCCCN (stereo not shown) [Compound 16, N-[4-(3-aminopropyl)aminobutyl]-2-(7-guanidino-2-heptenamido)-2-hydroxyethanamide] | 25 to 50 mg/kg | > 150 mg/kg | 22.6% | 31.1% | 32.5% | 56.3% |  |  | 17 µg/mL (≈ 44.1 µM) | 0% | 0% | 233% | 50% | > 343% | 50% | > 350% | 50% | > 354% | 0% | 236% | response vs control in vivo at 0.78 mg/kg (mouse leukemia L-1210; [5]): 129%; responders at 50 mg/kg (mouse leukemia L-1210): 0%; response vs control in vivo at 50 mg/kg (mouse leukemia L-1210; [5]): 0% |
| N=C(N)NCCCCCCC=CC(=O)NC(O)C(=O)NCCCCNCCCN (stereo not shown) [Compound 18, N-[4-(3-aminopropyl)aminobutyl]-2-(9-guanidino-2-nonenamido)-2-hydroxyethanamide] | 6.25 to 12.5 mg/kg | > 37.5 mg/kg |  | 15.7% | 20.9% | 29.5% | 32.3% | 47.8% | 90 µg/mL (≈ 218 µM) | 0% | 75% | > 429% | 100% | > 429% | 50% | > 350% | 0% | 0% |  |  | responders at 0.1 mg/kg (mouse leukemia L-1210; 0.10 mg/kg/day i.p., read-out: Number of mice survived for 30 days): 0%; response vs control in vivo at 0.1 mg/kg (mouse leukemia L-1210; 0.10 mg/kg/day i.p., read-out: Prolongation of survival period (%), T/C × 100): 129%; responders at 0.2 mg/kg (mouse leukemia L-1210): 0%; response vs control in vivo at 0.2 mg/kg (mouse leukemia L-1210; [5]): 136%; responders at 0.39 mg/kg (mouse leukemia L-1210): 0%; response vs control in vivo at 0.39 mg/kg (mouse leukemia L-1210; [5]): 157%; response vs control in vivo at 0.78 mg/kg (mouse leukemia L-1210; [5]): 200% |
| CCOC(NC(=O)C[C@@H](O)CCCCNC(=N)N)C(=O)NCCCCNCCCN (stereo partly shown) [Compound 23, N-[4-(3-aminopropyl)aminobutyl]-2-(7-guanidino-3-hydroxyheptanamido)-2-ethoxyethanamide] | > 25 mg/kg | > 150 mg/kg | 58.5% | 85.5% | 93% | 96.1% | 96.4% |  | 2.2 µg/mL (≈ 5.1 µM) |  |  |  | 0% | 104% | 0% | 119% | 0% | 129% | 0% | 200% |  |
| COC(NC(=O)C=CCCCCNC(=N)N)C(=O)NCCCCNCCCN (stereo not shown) [Compound 19, N-[4-(3-aminopropyl)aminobutyl]-2-(7-guanidino-2-heptenamido)-2-methoxyethanamide] | 12.5 to 25 mg/kg | > 75 mg/kg | 32.2% | 46.4% | 56.4% | 75.6% | 85.4% | 93.1% | 6.3 µg/mL (≈ 15.8 µM) | 0% | 50% | > 350% | 50% | > 321% | 75% | > 429% | 50% | > 364% | 0% | 0% | inhibition at 1.25 µg/mL [3, 4]: 29.9%; responders at 0.2 mg/kg (mouse leukemia L-1210): 0%; response vs control in vivo at 0.2 mg/kg (mouse leukemia L-1210; [5]): 100%; responders at 0.39 mg/kg (mouse leukemia L-1210): 0%; response vs control in vivo at 0.39 mg/kg (mouse leukemia L-1210; [5]): 107%; response vs control in vivo at 0.78 mg/kg (mouse leukemia L-1210; [5]): 164% |

Reference: US4983328A, “N-(4-(3-aminopropyl)aminobutyl)-2-(ω-gua nidino-fatty-acid-amido(-2-substituted-ethanamide, salt thereof, and process for preparation thereof” (Bristol-Myers Company, priority 1981, dated 1991)
